Measurements: patent US12514928B2, “Herboxidiene antibody-drug conjugates and methods of use” (Eisai R&D Management Co., Ltd., priority 2018, dated 2026)

What was measured:
[1] = in vivo; cited from earlier work
[2] = system: THP1.1; assay: Herboxidiene splicing modulator cell potency, CTGlo-ATS, THP1.1, 72 h; assay type: cell-based
[3] = molecular target: SF3b complex (Homo sapiens, UniProt O75533+Q7RTV0); assay: Payload binding to the SF3b complex (SF3B1 binding); details: SF3B1 (WT), HELA.2, read-out: SPA-ATS GMean IC50 (nM) SF3B1 (WT) HELA.2
Protocol: Exemplary herboxidiene spliceosome modulator payloads used in the preparation of ADCs were profiled. Payloads were evaluated for binding to the SF3b complex, in vitro splicing activity, and ability to inhibit cell growth.

[4] = Chemical stability of ADC payload in Mcilvane buffer pH 5.5; assay type: physicochemical; details: payload 20 μM, pH 5.5, 37° C.
Protocol: 3.5.3 Chemical Stability of ADC Payload
Herboxidiene splicing modulators were incubated in Mcilvane (Citrate-Phosphate) buffer, pH 5.5 (Boston Bioproducts; #BB-2466) at a final concentration of 20 μM (less than 0.5% DMSO from stock solution). The herboxidiene splicing modulator solution and the internal standard were pipetted into 96-well plates, ran on UPLC (Waters Acquity H class), and analyzed for initial chromatographic signal (t=0). The column was a Waters UPLC HSS T3 1.8 μm 2.1×50 mm column (#186003538). A gradient of mobile phase A from 95% to 10% was employed over 1 min, where A was 0.1% formic acid in water and mobile phase B was 0.1% formic acid in acetonitrile (flow rate 0.9 mL/min). The remainder of the herboxidiene splicing modulator solution was kept in a plate shaker at 37° C. (Eppendorf ThermoMixer). Sample analyses by UPLC were repeated at 24, 72, and 96 hours post-incubation at 37° C. The area ratio response of the herboxidiene splicing modulator and internal standard was determined for three time points: time 0, day 1, and either day 3 or day 4. Time 0 was set to 100. The area ratio responses of the later time points were compared to time 0. Percent remaining was calculated as follows: (Area Ratio day X/Area Ratio time 0)*100=% remaining. The slope of the line was calculated in Excel comparing the log of % remaining and time point.

[5] = system: Ad2.1; assay: In vitro splicing (IVS) assay, qPCR-IVS-ATS, Ad2.1 substrate, HELA.2; assay type: biochemical; details: payload, read-out: qPCR-IVS-ATS GMean IC50 (nM) Ad2.1 HELA.2
[6] = system: NCIH1650.1; assay: Herboxidiene splicing modulator cell potency, CTGlo-ATS, NCIH1650.1, 72 h; assay type: cell-based
[7] = system: Ad2.2 pre-mRNA; assay: In vitro splicing (IVS) assay with HeLa nuclear extract, RT-qPCR of spliced product; assay type: biochemical; details: payload, HELA.2, read-out: qPCR-IVS-ATS GMean IC50 (nM) Ad2.2 HELA.2
Protocol: 2.1 In Vitro Splicing (IVS)
To evaluate payload activity in a cell-free system, an in vitro splicing assay was performed. The payloads were incubated with nuclear extracts and pre-mRNA substrate minigenes.
HeLa nuclear extract preparation: HeLa S3 cell pellets were resuspended in hypotonic buffer (10 mM HEPES pH 7.9, 1.5 mM MgCl2, 10 mM KCl, 0.2 mM PMSF, 0.5 mM DTT) and the suspension was brought up to a total of 5 packed cell volume (PCV). After centrifugation, the supernatant was discarded, and the cells were brought up to 3 PCV with hypotonic buffer and incubated on ice for 10 min. Cells were lysed using a dounce homogenizer and then centrifuged. The supernatant was discarded, and the pellet was resuspended with […] packed nuclear volume (PNV) of low salt buffer (20 mM HEPES pH 7.9, 1.5 mM MgCl2, 20 mM KCl, 0.2 mM EDTA, 25% glycerol, 0.2 mM PMSF, 0.5 mM DTT), followed by 1/2 PNV of high salt buffer (same as low salt buffer except 1.4 M KCl). The nuclei were gently mixed for 30 min before centrifuging. The supernatant (nuclear extract) was then dialyzed into storage buffer (20 mM HEPES pH 7.9, 100 mM KCl, 0.2 mM EDTA, 20% glycerol, 0.2 mM PMSF, 0.5 mM DTT). Protein concentration was determined using NanoDrop 8000 UV-Vis spectrophotometer (ThermoFisher Scientific).
IVS: All Ad2-derived sequences (Pellizzoni et al. (1998) Cell 95(5):615-24) were cloned into pcDNA3.1(+) vector (Promega) using 5′ EcoRI and 3′ Xbal restriction sites. The plasmids were linearized using Xbal and used as DNA templates in in vitro transcription reactions. The FtzΔi intron-less plasmid (Luo and Reed (1999) 96(26):14937-42) was linearized using EcoRI. All RNAs were in vitro transcribed and then purified using MEGAScript T7 (Invitrogen) and MegaClear (Invitrogen) kits, respectively. For splicing reactions using Ad2 variant pre-mRNAs, […] were prepared using 8 μg nuclear extracts prepared from HeLa S3, 2 ng pre-mRNA, 0.2 ng FTZΔi, and varying concentrations of compounds or DMSO. After a 15 min pre-incubation at 30° C., 1 μL splicing activation buffer (0.5 mM ATP, 20 mM creatine phosphate, 1.6 mM MgCl2) was added, and the reactions were incubated for 90 min at 30° C. The reactions were then quenched with 13 μL DMSO, and 25 nL was used for RT-qPCR. RT-qPCR reactions were prepared using TaqMan RNA-to-CT 1-step kit (Life Technologies), RNA from splicing reactions, Ad2 (forward: […]; reverse: […]; probe: CTGTTGGGCTCGCGGTTG) and Ftz (forward: […]; reverse: […]; probe: […]) mRNA primer-probe sets. Prism 7 (Graphpad) was used for non-linear regression curve fitting of the formed spliced product and normalized to the control (DMSO) sample.

[8] = Caco-2 permeability of ADC payload; assay type: in vitro ADME; details: human
Protocol: 3.5.2 Caco-2 Permeability of ADC Payload
Caco-2 cells were cultured for 21 days in transwell 24-well plates at 37° C., 95% humidity, 5% CO2. Integrity of cell monolayer was confirmed by TEER (transepithelial electrical resistance) and Lucifer yellow. Payloads were spiked in duplicate at 10 μM, separately, on both sides of the cell monolayer. Permeability rates from the apical to basolateral (A-B) direction and the basolateral to apical (B-A) direction were determined by sampling aliquots from both chambers immediately after treatment (t=0) and following incubation for 2 hours. Samples were protein precipitated with organic solvent containing internal standard and analyzed by LC-MS/MS (SCI EX; API 5500). The area ratio responses of payload/internal standard over time in both directions were used to generate permeability (cm/sec) values. Efflux ratio was calculated by dividing B-A/A-B. Control compounds for low and high permeability and efflux behaved as expected.

Compound | plasma half-life [1] | CTGIo-ATS GMean LD50 (nM) 72 h THP1.1 ([2]; payload, THP1.1) [nM] | CTGIo-ATS Mean MinResponse % 72 h THP1.1 ([2]; payload, THP1.1) [%] | GI50 ([2]; read-out: CTGIo-ATS GMean GI50 (nM) 72 h THP1.1) [nM] | IC50 [3] [nM] | half-life at 20 μM ([4]; McIlvaine (citrate-phosphate) buffer, read-out: Stability Mean Stability t½ pH 5.5 (converted)) [h] | Stability Mean Stability % pH 5.5 t 24 h ([4]; % remaining at 24 h) [%] | IC50 [5] [nM] | CTGIo-ATS GMean LD50 (nM) 72 h NCIH1650.1 ([6]; payload, NCIH1650.1) [nM] | CTGIo-ATS Mean MinResponse % 72 h NCIH1650.1 ([6]; payload, NCIH1650.1) [%] | GI50 ([6]; read-out: CTGIo-ATS GMean GI50 (nM) 72 h NCIH1650.1) [nM] | IC50 [7] [nM] | efflux ratio at 2 h, 10 μM ([8]; efflux ratio, B-A/A-B, read-out: ER) | Papp A→B at 2 h, 10 μM ([8]; payload at 10 μM, 2 hours, apical to basolateral, read-out: Permeability Mean Caco-2 A-B Perm) [×10⁻⁶ cm/s] | Papp B→A at 2 h, 10 μM ([8]; payload at 10 μM, 2 hours, head incomplete (column between A-B and ER)) [×10⁻⁶ cm/s]
Ipilimumab: fully human anti-CTLA4 antibody, IgG1 | 288 to 336 h |  |  |  |  |  |  |  |  |  |  |  |  |  | 
tremelimumab: fully human anti-CTLA4 antibody, IgG2 | approximately 22 days |  |  |  |  |  |  |  |  |  |  |  |  |  | 
CO[C@H]([C@@H](C)[C@H]1O[C@]1(C)C[C@H](C)/C=C/C=C(\C)[C@H]1O[C@@H](CNC(=O)CCCCCOC(=O)N2CCNCC2)CC[C@@H]1C)[C@@H](C)O [Compound H5, 6-((((2R,5S,6S)-6-((S,2E,4E)-7-((2R,3R)-3-((2R,3R,4R)-4-hydroxy-3-methoxypentan-2-yl)-2-methyloxiran-2-yl)-6-methylhepta-2,4-dien-2-yl)-5-methyltetrahydro-2H-pyran-2-yl)methyl)amino)-6-oxohexyl piperazine-1-carboxylate] |  | 3.415 | −103.352 | 0.433 | 12.9 | > 168 | >100 | 30.3 | >10000 | −25.308 | 0.407 | 17.8 | 22.7 | 1.04 | 23.6
